Here are results for four compounds from patent publication US6878522B2, “Methods for the identification of compounds useful for the treatment of disease states mediated by prostaglandin D2” (priority 2000, dated 2005).

The structures appear in SMILES notation.

Assay [1] has as its system isolated human eosinophils. In words: Chemotaxis of isolated human eosinophils. The assay is classed as cell-based. Here is the method: In a specific example of this method, a competitive assay is performed to test compounds for their ability to interrupt the attraction of CRTH2 cells to PGD2. In this method, test compounds are diluted into the bottom wells of the Boyden chemotaxis chamber. A constant amount of PGD2 is also added to this dilution series, at a concentration known to have a chemotactic effect on CRTH2 cells. As a control, at least one aliquot contains only PGD2. Cells expressing CRTH2 are resuspended at 3-3.5×10^6 cells/ml in RPMI 1640 supplemented with 10 mM HEPES and 1 mg/ml bovine serum albumin (Sigma, St. Louis, Mo.), and placed into the upper wells of the chamber. The chambers are incubated for 90-120 minutes at 37° C. in a humidified CO2 incubator. After the incubation period, the number of migrating cells on the lower surface of the membrane filter is counted using light microscopy. The contribution of the test compound to the chemotactic activity of PGD2 is measured by comparing the chemotactic activity of the aliquots containing only PGD2 with the activity of aliquots containing test compound and PGD2. If addition of the test compound to the PGD2 solution results in a […] in the number of cells detected on the lower surface of the membrane relative to the number of cells detected using a solution containing only PGD2, then there is identified an antagonist of PGD2 induction of chemotactic activity of cells expressing CRTH2. In contrast, if the addition of the test compound to the PGD2 solution results in a […] in the number of cells detected on the lower surface of the membrane (relative to the number of cells detected using a solution containing only PGD2), then an […] of PGD2 induction of chemotactic activity of cells expressing CRTH2 is identified.
The chemotactic response of human T lymphocytes to PGD2, murine MDC and murine mSDF was also assayed. Chemotaxis was determined using a 48-well Boyden chamber (Neuroprobe, Cabin John, Md.), and 3.0 μm polycarbonate filters. Cells were resuspended (3-3.5×10^6 cells/ml) in RPMI 1640 supplemented with 10 mM HEPES and 1 mg/ml bovine serum albumin (Sigma, St. Louis, Mo.), and placed into the upper wells of the chamber. The compound to be tested was placed in the lower wells. The chambers were incubated for 90-120 minutes at 37° C. in a humidified CO2 incubator. At the end of the incubation period, the number of migrating cells on the filter (expressed per high power field) were enumerated microscopically. […] In FIG. 4, the chemotactic response of human basophils to PGD2 and C5a is shown.

Assay [2] deals with isolated human eosinophils. Briefly: Reactive oxygen species (ROS) release in isolated human eosinophils. Type of assay: cell-based. Here is the method:
Another secondary assay is the reactive oxygen species release assay. One measure of PGD2-induced activation of CRTH2 cells, such as eosinophils, is the intracellular release of reactive oxygen species. This can be tested in a reactive oxygen species release assay, or ROS, using lucigenin-dependent chemiluminescence to measure reactive oxygen species release. In this method, freshly isolated eosinophils are prepared, by standard methods, and resuspended at concentration 2-4×10^6 cells/ml in (RPMI; 10 mM HEPES; 1× Pen/Strep; 0.5% FBS) at room temperature. Immediately prior to use, 1 ml of cell suspension is added to 9 ml of buffer, prewarmed to 37° C. for 15 minutes, and added 0.5 ml of 200 mM Lucigenin.
Test compounds (made as 10,000× DMSO stocks) are diluted in buffer with DMSO (1.5 ul of DMSO/2.5 ml Buffer) and 25 μl/well added to white 96-well culture plate and placed in a 37° C. incubator. Isolated cells (held at room temperature) are diluted with room temperature buffer to 2-4×10^6 cells/ml, and incubated in a water bath at 37° C. for 15 minutes. At 15 minutes, 0.5 ml 200 mM lucigenin (bis-N-Methylacridinium Nitrate; Sigma, St. Louis, Mo.) is added to 10 ml of the cell suspension, mixed, and 100 μl/well is added to the prewarmed microtiter plate. The plate is returned to 37° C. for 5 minutes, at which time 25 μl of stimulus is added) The plate is read in the luminometer for 8 cycles. The luminescence of test compounds can be tested in the presence of PGD2, relative to a control sample containing PGD2 alone. A compound that interferes with the ability of PGD2 to result in intracellular reactive oxygen species release in CRTH2 cells, is a candidate for a CRTH2 antagonist.

The subject of assay [3] is guinea pig eyes. The following applies: topical, cited from earlier work; for microvascular leakage followed by conjunctival inflammation: 6-hour post challenge.
For assay [4] the following is noted: inhaled, asthmatics; cited from earlier work.

Take `CCCCC[C@H](O)/C=C/[C@H]1[C@H](O)CC(=O)[C@@H]1C/C=C\CCCC(=O)O` [PGE2]: the EC50 in assay [1] and in assay [2] was > 100 nM in each case.
As to `CCCCC[C@H](O)/C=C/[C@H]1C(=O)C[C@H](O)[C@@H]1C/C=C\CCCC(=O)O` [PGD2, prostaglandin D2], in assay [3], the “microvascular leakage followed by conjunctival inflammation” value is “microvascular leakage followed by conjunctival inflammation” and the ocular hypotension entry is recorded as “elicits ocular hypotension”. Further, the EC50 in assay [1] was found to be 3 nM. Moreover, in assay [4], the “bronchoconstriction potency relative to PGF2α” value is recorded as 3.5 × and the “bronchoconstriction potency relative to histamine” value was 30 ×. This compound also displayed an EC50 in assay [2] of 2 nM.
Consider `CCCCC[C@H](O)/C=C/[C@@H]1[C@@H](C/C=C\CCCC(=O)O)[C@@H](O)C[C@H]1O` [PGF2α], for which the EC50 in assay [1] is > 100 nM; in assay [2], > 1000 nM.
As to `O=C(O)CCCCCCC1C(=O)NC(=O)N1CCC(O)C1CCCCC1` (centres unmarked) [BW-245C], in assay [3], the “microvascular leakage followed by conjunctival inflammation” value is “BW-245C-insensitive” and the ocular hypotension entry is “mimicked by BW-245C”. For the same compound, in assay [1], the concentration giving a half-maximal response (EC50) was > 1000 nM. Besides, the EC50 in assay [2] was > 1000 nM.

As usually defined, the EC50 is the midpoint of the concentration-response curve.
